{"source": "patent US20140243302A1", "about": "“BRIDGED BICYCLIC COMPOUNDS FOR THE TREATMENT OF BACTERIAL INFECTIONS” (priority 2011, published 2014)", "note": "Where a name gives a salt, the structure may show the parent alone."}
{"tested_on": "Staphylococcus aureus Smith", "assay": "MIC assay, modified agar dilution (CLSI), S. aureus Smith", "format": "cell-based", "conditions": "Staphylococcus aureus, agar dilution, 35° C., 16-20 hr; lowest concentration that completely inhibited growth; read-out: S_aureus_Smith_WT_MIC", "in_short": "(§1)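 Strains were spotted at about 1×10^4 CFU onto compound-containing Mueller Hinton agar (two-fold series, 128-0.001 μg/mL), horse blood 5% added for pneumococcus and enterococcus. MIC read after 16-20 hr at 35 °C, following a modified CLSI agar dilution method.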", "units": {"MIC": "µg/mL"}}
{"smiles": "COc1ccc2ncc(F)c(C[C@@H](O)C34CCC(NCc5ncc6c(n5)OCCO6)(CC3)CO4)c2n1", "note": "[Example 145, (R)-1-(4-((6,7-Dihydro-[1,4]dioxino[2,3-d]pyrimidin-2-yl)methylamino)-2-oxabicyclo[2.2.2]octan-1-yl)-2-(3-fluoro-6-methoxy-1,5-naphthyridin-4-yl)ethanol]", "MIC": 0.25}
{"smiles": "CC(C)(O)CCOc1ccc2ncc(F)c(CCC34CCC(NCc5ccc6c(n5)NC(=O)CO6)(CC3)CO4)c2n1", "note": "[Example 175, 6-{[(1-{2-[3-Fluoro-6-(3-hydroxy-3-methylbutoxy)-1,5-naphthyridin-4-yl]ethyl}-2-oxabicyclo[2.2.2]oct-4-yl)amino]methyl}-2H-pyrido[3,2-b][1,4]oxazin-3(4H)-one]", "MIC": 1}
{"smiles": "COc1ccc2ncc(F)c(CC(O)C34CCC(NCc5cc6[nH]c(=O)cnc6cn5)(CC3)CO4)c2n1", "note": "(stereo not shown) [Example 182, 7-[({1-[2-(3-Fluoro-6-methoxy-1,5-naphthyridin-4-yl)-1-hydroxyethyl]-2-oxabicyclo[2.2.2]oct-4-yl}amino)methyl]pyrido[3,4-b]pyrazin-2(1H)-one]", "MIC": 4}
{"smiles": "COc1ccc2ncc(F)c(C[C@H](O)C34CCC(NCc5ccc6c(c5)NC(=O)CS6(=O)=O)(CC3)CO4)c2n1", "note": "[Example 205, (S)—N-((1,1-Dioxido-3-oxo-3,4-dihydro-2H-benzo[b][1,4]thiazin-6-yl)methyl)-1-(2-(3-fluoro-6-methoxy-1,5-naphthyridin-4-yl)-1-hydroxyethyl)-2-oxabicyclo[2.2.2]octan-4-aminium chloride]", "MIC": 2}
{"smiles": "COc1ccc2ncc(F)c(CCC34CCC(NCc5cc6ccc(F)cc6n(C)c5=O)(CC3)CO4)c2n1", "note": "[Example 105, 7-Fluoro-3-((1-(2-(3-fluoro-6-methoxy-1,5-naphthyridin-4-yl)ethyl)-2-oxabicyclo[2.2.2]octan-4-ylamino)methyl)-1-methylquinolin-2(1H)-one]", "MIC": 2}
{"smiles": "COc1ccc2ncc(F)c(CC(O)C34CCC(NCc5nc6c(cc5F)OCC(=O)N6)(CC3)CO4)c2n1", "note": "(single isomer, unassigned) [Example 135, 7-Fluoro-6-((1-(2-(3-fluoro-6-methoxy-1,5-naphthyridin-4-yl)-1-hydroxyethyl)-2-oxabicyclo[2.2.2]octan-4-ylamino)methyl)-2H-pyrido[3,2-b][1,4]oxazin-3(4H)-one]", "MIC": 0.031}
{"smiles": "NCCOc1ccc2ncc(F)c(CCC34CCC(NCc5ccc6c(n5)NC(=O)CO6)(CC3)CO4)c2n1", "note": "[Example 40, 6-((1-(2-(6-(2-Aminoethoxy)-3-fluoro-1,5-naphthyridin-4-yl)ethyl)-2-oxabicyclo[2.2.2]octan-4-ylamino)methyl)-2H-pyrido[3,2-b][1,4]oxazin-3(4H)-one]", "MIC": 0.25}
{"smiles": "O=C1COc2ccc(CNC34CCC(C(O)Cc5c(F)cnc6ccc(OCCCO)nc56)(CC3)OC4)nc2N1", "note": "(stereo not shown) [Example 158, 6-{[(1-{2-[3-Fluoro-6-(3-hydroxypropoxy)-1,5-naphthyridin-4-yl]-1-hydroxyethyl}-2-oxabicyclo[2.2.2]oct-4-yl)amino]methyl}-2H-pyrido[3,2-b][1,4]oxazin-3(4H)-one]", "MIC": 0.125}
{"smiles": "COc1ccc2ncc(F)c(CCC34CCC(NCc5nc6ccccc6n(C)c5=O)(CC3)CO4)c2n1", "note": "[Example 24, 3-((1-(2-(3-Fluoro-6-methoxy-1,5-naphthyridin-4-yl)ethyl)-2-oxabicyclo[2.2.2]octan-4-ylamino)methyl)-1-methylquinoxalin-2(1H)-one]", "MIC": 4}
{"smiles": "COc1ccc2ncc(F)c(CCC34CCC(NCc5cc6cc(F)ccc6n(C)c5=O)(CC3)CO4)c2n1", "note": "[Example 102, 6-Fluoro-3-((1-(2-(3-fluoro-6-methoxy-1,5-naphthyridin-4-yl)ethyl)-2-oxabicyclo[2.2.2]octan-4-ylamino)methyl)-1-methylquinolin-2(1H)-one]", "MIC": 2}
{"smiles": "O=C1COc2ccc(CNC34CCC(CCc5c(F)cnc6ccc(OC7CC(O)CC(O)C7)nc56)(CC3)OC4)nc2N1", "note": "(stereo not shown) [Example 166, 6-({[1-(2-{6-[(3,5-Dihydroxycyclohexyl)oxy]-3-fluoro-1,5-naphthyridin-4-yl}ethyl)-2-oxabicyclo[2.2.2]oct-4-yl]amino}methyl)-2H-pyrido[3,2-b][1,4]oxazin-3(4H)-one]", "MIC": 0.5}
{"smiles": "COc1ccc2ncc(F)c(CCC34CCC(NCc5nc6c(cc5Cl)OCC(=O)N6)(CC3)CO4)c2n1.Cl", "note": "[Example 88, 7-chloro-6-(((1-(2-(3-fluoro-6-methoxy-1,5-naphthyridin-4-yl)ethyl)-2-oxabicyclo[2.2.2]octan-4-yl)amino)methyl)-2H-pyrido[3,2-b][1,4]oxazin-3(4H)-one]", "MIC": 0.008}
{"smiles": "CCc1c(CNC23CCC(CCc4c(F)cnc5ccc(OC)nc45)(CC2)OC3)nc2c(c1C)OCC(=O)N2.Cl", "note": "[Example 198, N-((7-Ethyl-8-methyl-3-oxo-3,4-dihydro-2H-pyrido[3,2-b][1,4]oxazin-6-yl)methyl)-1-(2-(3-fluoro-6-methoxy-1,5-naphthyridin-4-yl)ethyl)-2-oxabicyclo[2.2.2]octan-4-aminium chloride]", "MIC": 2}
{"smiles": "NCCCCCOc1ccc2ncc(F)c(CCC34CCC(NCc5ccc6c(n5)NC(=O)CO6)(CC3)CO4)c2n1", "note": "[Example 41, 6-((1-(2-(6-(5-Aminopentyloxy)-3-fluoro-1,5-naphthyridin-4-yl)ethyl)-2-oxabicyclo[2.2.2]octan-4-ylamino)methyl)-2H-pyrido[3,2-b][1,4]oxazin-3(4H)-one]", "MIC": 0.5}
{"smiles": "COc1cc(F)c2ncc(F)c(CCC34CCC(NCc5ccc6c(n5)NC(=O)CO6)(CC3)CO4)c2c1.Cl", "note": "[Example 189, 6-((1-(2-(3,8-Difluoro-6-methoxyquinolin-4-yl)ethyl)-2-oxabicyclo[2.2.2]octan-4-ylamino)methyl)-2H-pyrido[3,2-b][1,4]oxazin-3(4H)-one Hydrochloride]", "MIC": 0.016}
{"smiles": "COc1cnc2ncc(=O)n(CCC34CCC(NCc5ccc6c(n5)NC(=O)CO6)(CC3)CO4)c2c1", "note": "[Example 121, 6-(((1-(2-(7-Methoxy-2-oxopyrido[2,3-b]pyrazin-1(2H)-yl)ethyl)-2-oxabicyclo[2.2.2]octan-4-yl)amino)methyl)-2H-pyrido[3,2-b][1,4]oxazin-3(4H)-one]", "MIC": 0.016}
{"smiles": "COc1ccc2ncc(F)c(C[C@H](O)C34CCC(NCc5ccc6c(c5)NC(=O)CS6)(CC3)CO4)c2n1.Cl", "note": "[Example 204, (S)-1-(2-(3-Fluoro-6-methoxy-1,5-naphthyridin-4-yl)-1-hydroxyethyl)-N-((3-oxo-3,4-dihydro-2H-benzo[b][1,4]thiazin-6-yl)methyl)-2-oxabicyclo[2.2.2]octan-4-aminium chloride]", "MIC": 0.06}
{"smiles": "O=C1COc2ccc(CNC34CCC(CCc5c(F)cnc6ccc(OCC7(O)COC7)nc56)(CC3)OC4)nc2N1", "note": "[Example 170, 6-((1-(2-(3-Fluoro-6-((3-hydroxyoxetan-3-yl)methoxy)-1,5-naphthyridin-4-yl)ethyl)-2-oxabicyclo[2.2.2]octan-4-ylamino)methyl)-2H-pyrido[3,2-b][1,4]oxazin-3(4H)-one]", "MIC": 0.125}
{"smiles": "COc1ccc2ncc(F)c(CCC34CCC(NCc5cc6c(cn5)OCCO6)(CC3)CO4)c2n1", "note": "[Example 61, N-((2,3-Dihydro-[1,4]dioxino[2,3-c]pyridin-7-yl)methyl)-1-(2-(3-fluoro-6-methoxy-1,5-naphthyridin-4-yl)ethyl)-2-oxabicyclo[2.2.2]octan-4-amine]", "MIC": 0.063}
{"smiles": "COc1ccc2ncc(F)c(C(CO)CC34CCC(NCc5ccc6c(n5)NC(=O)CO6)(CC3)CO4)c2n1.Cl", "note": "(stereo not shown) [Example 194, 1-(2-(3-Fluoro-6-methoxy-1,5-naphthyridin-4-yl)-3-hydroxypropyl)-N-((3-oxo-3,4-dihydro-2H-pyrido[3,2-b][1,4]oxazin-6-yl)methyl)-2-oxabicyclo[2.2.2]octan-4-aminium chloride]", "MIC": 1}
{"smiles": "COc1ccc2ccc(=O)n(CCC34CCC(NCc5ccc6c(n5)NC(=O)CO6)(CC3)CO4)c2n1.Cl", "note": "[Example 131, 6-((1-(2-(7-Methoxy-2-oxo-1,8-naphthyridin-1(2H)-yl)ethyl)-2-oxabicyclo[2.2.2]octan-4-ylamino)methyl)-2H-pyrido[3,2-b][1,4]oxazin-3(4H)-one Hydrochloride]", "MIC": 0.016}
{"tested_on": "Staphylococcus aureus Smith", "assay": "MIC assay, modified agar dilution (CLSI), S. aureus Smith", "format": "cell-based", "conditions": "agar dilution, 35° C., 16-20 hr; lowest concentration that completely inhibited growth", "in_short": "as §1", "units": {"S_aureus_Smith_WT_MIC": "µg/mL"}}
{"smiles": "COc1ccc2ncc(F)c(C(C)C(O)C34CCC(NCc5ccc6c(n5)NC(=O)CO6)(CC3)CO4)c2n1", "note": "(single isomer, unassigned) [Example 151a, 6-((1-(2-(3-Fluoro-6-methoxy-1,5-naphthyridin-4-yl)-1-hydroxypropyl)-2-oxabicyclo[2.2.2]octan-4-ylamino)methyl)-2H-pyrido[3,2-b][1,4]oxazin-3(4H)-one]", "S_aureus_Smith_WT_MIC": 32.0}
{"smiles": "COc1ccc2ccc(=O)n(CC(O)C34CCC(NCc5ccc6c(n5)NC(=O)CO6)(CC3)CO4)c2n1", "note": "(single isomer, unassigned) [Example 52b, 6-(((1-(1-Hydroxy-2-(7-methoxy-2-oxo-1,8-naphthyridin-1(2H)-yl)ethyl)-2-oxabicyclo[2.2.2]octan-4-yl)amino)methyl)-2H-pyrido[3,2-b][1,4]oxazin-3(4H)-one]", "S_aureus_Smith_WT_MIC": 0.0630}
{"tested_on": "Staphylococcus aureus Smith", "assay": "MIC assay, modified agar dilution (CLSI), S. aureus Smith", "format": "cell-based", "conditions": "agar dilution, 35° C., 16-20 hr; lowest concentration that completely inhibited growth; Dihydrochloride", "in_short": "as §1", "units": {"S_aureus_Smith_WT_MIC": "µg/mL"}}
{"smiles": "COc1ccc2ncc(F)c(CC(N)C34CCC(NCc5ccc6c(n5)NC(=O)CO6)(CC3)CO4)c2n1", "note": "(single isomer, unassigned) [Example 21b, 6-((1-(1-Amino-2-(3-fluoro-6-methoxy-1,5-naphthyridin-4-yl)ethyl)-2-oxabicyclo[2.2.2]octan-4-ylamino)methyl)-2H-pyrido[3,2-b][1,4]oxazin-3(4H)-one Dihydrochloride]", "S_aureus_Smith_WT_MIC": 0.125}
{"tested_on": "Staphylococcus aureus Smith", "assay": "MIC assay, modified agar dilution (CLSI), S. aureus Smith", "format": "cell-based", "conditions": "agar dilution, 35° C., 16-20 hr; lowest concentration that completely inhibited growth; Hydrochloride", "in_short": "as §1", "units": {"S_aureus_Smith_WT_MIC": "µg/mL"}}
{"smiles": "COc1ccc2ncc(F)c(CCC34CCC(NCc5ccc6c(n5)NC(=O)C(C)O6)(CC3)CO4)c2n1.Cl", "note": "(single isomer, unassigned) [Example 100b, 6-((1-(2-(3-Fluoro-6-methoxy-1,5-naphthyridin-4-yl)ethyl)-2-oxabicyclo[2.2.2]octan-4-ylamino)methyl)-2-methyl-2H-pyrido[3,2-b][1,4]oxazin-3(4H)-one Hydrochloride]", "S_aureus_Smith_WT_MIC": 0.0630}
